Source: PubChem BioAssay AID1963451 (Molecular Pharmacology Branch, DTP, NCI, 2024)
Values joined by “and” are separate entries in the source; they are usually repeats but may differ in a detail not shown here. Equal entries are not always repeated.

Tested on: 521955-158-R6-J3-PDC complex spheroid growth, % test/control
Test: Anticancer human tumor 521955-158-R6-J3-PDC patient-derived pancreatic carcinoma cell line growth inhibition [Asc]
Conditions: for viability, T/C: stronger effect = lower value
How it was run: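 Concentration series start at each agent's clinical Cmax, or at 10 microM when none is established, and drop in half-log steps; agents are applied alone or together to complex spheroids built with HUVEC and hMSC.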

[1] = curve of first compound, second compound 0.00949 µM
[2] = curve of first compound, second compound 0.03 µM
[3] = curve of first compound, second compound 0.0949 µM
[4] = curve of first compound, second compound 0.3 µM
[5] = curve of first compound, second compound 0.949 µM
[6] = curve of first compound, second compound 3 µM
[7] = second compound 0.00949 µM, first compound 0.0316 µM
[8] = second compound 0.00949 µM, first compound 0.1 µM
[9] = second compound 0.00949 µM, first compound 0.316 µM
[10] = second compound 0.00949 µM, first compound 1 µM
[11] = second compound 0.00949 µM, first compound 3.16 µM
[12] = second compound 0.00949 µM, first compound 10 µM
[13] = second compound 0.03 µM, first compound 0.0316 µM
[14] = second compound 0.03 µM, first compound 0.1 µM
[15] = second compound 0.03 µM, first compound 0.316 µM
[16] = second compound 0.03 µM, first compound 1 µM
[17] = second compound 0.03 µM, first compound 3.16 µM
[18] = second compound 0.03 µM, first compound 10 µM
[19] = second compound 0.0949 µM, first compound 0.0316 µM
[20] = second compound 0.0949 µM, first compound 0.1 µM
[21] = second compound 0.0949 µM, first compound 0.316 µM
[22] = second compound 0.0949 µM, first compound 1 µM
[23] = second compound 0.0949 µM, first compound 3.16 µM
[24] = second compound 0.0949 µM, first compound 10 µM
[25] = second compound 0.3 µM, first compound 0.0316 µM
[26] = second compound 0.3 µM, first compound 0.1 µM
[27] = second compound 0.3 µM, first compound 0.316 µM
[28] = second compound 0.3 µM, first compound 1 µM
[29] = second compound 0.3 µM, first compound 3.16 µM
[30] = second compound 0.3 µM, first compound 10 µM
[31] = second compound 0.949 µM, first compound 0.0316 µM
[32] = second compound 0.949 µM, first compound 0.1 µM
[33] = second compound 0.949 µM, first compound 0.316 µM
[34] = second compound 0.949 µM, first compound 1 µM
[35] = second compound 0.949 µM, first compound 3.16 µM
[36] = second compound 0.949 µM, first compound 10 µM
[37] = second compound 3 µM, first compound 0.0316 µM
[38] = second compound 3 µM, first compound 0.1 µM
[39] = second compound 3 µM, first compound 0.316 µM
[40] = second compound 3 µM, first compound 1 µM
[41] = second compound 3 µM, first compound 3.16 µM
[42] = second compound 3 µM, first compound 10 µM
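Note: spheroids exposed to compounds for 7 days.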
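Throughout, for viability, T/C: 100% = DMSO vehicle control wells.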

`C#Cc1c(F)ccc2cc(O)cc(-c3ncc4c(N5CC6CCC(C5)N6)nc(OCC56CCCN5CC(F)C6)nc4c3F)c12` (stereo unspecified) + CCN1C(C(=O)NC23CCC(C(=O)O)(CC2)CC3)C(c2cccc(Cl)c2F)C2(C(=O)Nc3cc(Cl)ccc32)C12CCCCC2 was tested, and the IC50 [1] was 0.518 µM, the IC50 [2] was 0.329 µM and the IC50 [3] was 0.214 µM. For the same compound, the IC50 [4] was 0.223 µM, the IC50 [5] was 0.903 µM and the IC50 [6] was less than 0.0316 µM. The viability, T/C [7] was 76.9%, the viability, T/C [8] was 60.5% and the viability, T/C [9] was 50.2%. The viability, T/C [10] was 49.1%, the viability, T/C [11] was 39.3% and the viability, T/C [12] was 28.2%. The viability, T/C [13] was 72.2%, the viability, T/C [14] was 58% and the viability, T/C [15] was 47.1%. It also gave a viability, T/C [16] of 45.4%, a viability, T/C [17] of 41.4% and a viability, T/C [18] of 31.7%. It also gave a viability, T/C [19] of 81.6%, a viability, T/C [20] of 55.8% and a viability, T/C [21] of 46.5%. The viability, T/C [22] was 40.2%, the viability, T/C [23] was 43.6% and the viability, T/C [24] was 30.3%. For the same compound, the viability, T/C [25] was 72.1%, the viability, T/C [26] was 65.9% and the viability, T/C [27] was 42.4%. The viability, T/C [28] was 40.4%, the viability, T/C [29] was 39.2% and the viability, T/C [30] was 29.3%. The viability, T/C [31] was 68.3%, the viability, T/C [32] was 66% and the viability, T/C [33] was 51%. The viability, T/C [34] was 53%, the viability, T/C [35] was 41.7% and the viability, T/C [36] was 34.2%. It also gave a viability, T/C [37] of 57.9%, a viability, T/C [38] of 48.4% and a viability, T/C [39] of 51%. It also gave a viability, T/C [40] of 41.3%, a viability, T/C [41] of 50.4% and a viability, T/C [42] of 25.7%.

For `O=C(c1cc(Cc2n[nH]c(=O)c3ccccc23)ccc1F)N1CCN(C(=O)C2CC2)CC1`, the viability, T/C (compound 0.0316 µM) was 103% and 91.4% and 91.6%, the viability, T/C (compound 0.1 µM) was 92.6% and 93.9% and 101% and the viability, T/C (compound 0.316 µM) was 100% and 101% and 87.3%. For the same compound, the viability, T/C (compound 1 µM) was 108% and 101% and 91.8%, the viability, T/C (compound 3.16 µM) was 98.8% and 94.8% and 124% and the viability, T/C (compound 10 µM) was 98.6% and 78.8% and 86.5%. The IC50 (curve of compound) was greater than 10 µM.

Compound `O=C(c1cc(Cc2n[nH]c(=O)c3ccccc23)ccc1F)N1CCN(C(=O)C2CC2)CC1` + CCN1C(C(=O)NC23CCC(C(=O)O)(CC2)CC3)C(c2cccc(Cl)c2F)C2(C(=O)Nc3cc(Cl)ccc32)C12CCCCC2 has an IC50 [1] greater than 10 µM, an IC50 [2] greater than 10 µM and an IC50 [3] greater than 10 µM. For the same compound, the IC50 [4] was greater than 10 µM, the IC50 [5] was greater than 10 µM and the IC50 [6] was greater than 10 µM. It also gave a viability, T/C [7] of 109%, a viability, T/C [8] of 98.4% and a viability, T/C [9] of 92.4%. The viability, T/C [10] was 83.7%, the viability, T/C [11] was 83.4% and the viability, T/C [12] was 89.7%. It also gave a viability, T/C [13] of 127%, a viability, T/C [14] of 98.7% and a viability, T/C [15] of 94.2%. For the same compound, the viability, T/C [16] was 108%, the viability, T/C [17] was 82% and the viability, T/C [18] was 88.8%. For the same compound, the viability, T/C [19] was 106%, the viability, T/C [20] was 98.6% and the viability, T/C [21] was 88.6%. The viability, T/C [22] was 101%, the viability, T/C [23] was 96.4% and the viability, T/C [24] was 89.8%. It also gave a viability, T/C [25] of 113%, a viability, T/C [26] of 110% and a viability, T/C [27] of 135%. The viability, T/C [28] was 90.6%, the viability, T/C [29] was 89.3% and the viability, T/C [30] was 104%. It also gave a viability, T/C [31] of 113%, a viability, T/C [32] of 114% and a viability, T/C [33] of 104%. It also gave a viability, T/C [34] of 92.1%, a viability, T/C [35] of 89.2% and a viability, T/C [36] of 89%. It also gave a viability, T/C [37] of 90.8%, a viability, T/C [38] of 100% and a viability, T/C [39] of 96.5%. For the same compound, the viability, T/C [40] was 94.4%, the viability, T/C [41] was 104% and the viability, T/C [42] was 101%.
